From US5952307A, “Basic α-aminoalkylphosphonate derivatives” (priority 1997, dated 1999)

How the values were obtained:
Assay type in all cases: biochemical
bovine trypsin = target: T1, bovine trypsin (Bos taurus, UniProt P00760); assay: Inactivation rate of bovine trypsin, incubation method; details: for kobsd /[I] bovine trypsin: Table I, 0.1M Hepes, 0.01M CaCl2 pH 7.5, 25° C., 2% DMSO, substrate Z--Arg--SBzl, NI = no inhibition after 25 min; for kobs /[I] bovine trypsin: 0.13 μM trypsin, 0.25-42 μM inhibitor, 80 mM Hepes pH 7.5, 1 mM CaCl2, 8% DMSO, 25° C., NI = no inhibition
T1 sequence (P00760 24-246): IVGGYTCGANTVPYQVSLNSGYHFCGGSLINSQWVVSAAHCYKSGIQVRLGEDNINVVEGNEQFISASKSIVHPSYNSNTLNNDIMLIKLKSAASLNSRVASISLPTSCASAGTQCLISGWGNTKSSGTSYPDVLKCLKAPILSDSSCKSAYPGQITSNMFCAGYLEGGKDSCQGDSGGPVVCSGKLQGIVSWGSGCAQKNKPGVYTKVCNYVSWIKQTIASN
Experimental: (§1) Inactivation rates of serine proteases by aryl diesters of peptidyl derivatives of α-aminoalkylphosphonates were measured by the incubation method. An aliquot of inhibitor (25 or 50 μl) in Me2 SO was added to a buffered enzyme solution (0.01-2.3 μM) to initiate the inactivation. Aliquots (50 μl) were withdrawn at various intervals and the residual enzymatic activity was measured. Me2 SO concentration in the reaction mixture was 8-12% (v/v). A 0.1 M HEPES, 0.01 M CaCl2, pH 7.5 buffer was utilized for trypsin and trypsin-like enzymes. A 0.1 M HEPES, 0.5 M NaCl, pH 7.5, was utilized for the other serine proteases. Peptide thioesters or peptide nitroanilides with the appropriate sequences were used as substrates for various serine proteases. All peptide thioesters hydrolysis rates were measured with the assay mixture containing 4,4'-dithiodipyridine {ε324 =19800 M^-1 cm^-1; Grasetti & Murray, Arch. Biochem. Biophys. 1967, 119, 41-48}. Peptide 4-nitroanilide hydrolysis was measured at 410 nm {ε410 =8800 M^-1 cm^-1; Erlanger et al., Arch. Biochem. Biophys. 1961, 95, 271-278}. First order inactivation rate constants (Kobs) were obtained from plots of In vt /vo vs time, and the correlation coefficients were greater then 0.98.
(§2) ^a Inhibition constants were measured in 0.1M Hepes, 0.01M CaCl2
(§3) pH 7.5 for trypsin, granzymes A, and K, and in 0.1M Hepes, 10% glycerol,
(§4) 10 mM heparin, pH 7.5 for mast cell tryptase, and at 25° C. The
(§5) reaction mixtures contained 2% DMSO for trypsin, 7.6% for granzyme A, and
(§6) 7.1% for granzyme K and tryptase. The substrate was Z--Arg--SBzl for
(§7) granzymes and trypsin, and Z--Arg--SBzl or Z--Lys--SBzl for tryptase in
(§8) the presence of DTNB. The inhibitor # concentration ranged from 0.001 to
(§9) ^b NI, no inhibition after 25 min of incubation with enzyme.
(§10) ^a Enzyme was incubated with the inhibitor in 250 μL of the proper
(§11) buffer at 25° C. Specifically, the inhibition reation mixtures wer
composed of: 0.13 μM trypsin, 0.25-42 μM inhibitor in an 80 mM
(§12) Hepes, pH 7.5 buffer containing 1 mM CaCl2 and 8% DMSO; 0.07 μM
(§13) DMSO. Aliquots of 25 μL were withdrawn at various intervals and the
(§14) residual enzymatic activity was measured as described in experimental
(§15) section. The kobs values were calculated from pseudofirst-order
(§16) ^a Enzyme (0.06-0.5 μM) was incubated with the inhibitor (0.25-42
(§17) μM) in 250 μL of the proper buffer containing 9% DMSO at 25°
(§18) C. The final inhibition reaction mixtures are given in the footnote to
(§19) Table 1. Aliquots of 25 μL were withdrawn at various intervals and the […]

human thrombin = target: T2, human thrombin (Homo sapiens, UniProt P00734); details: Table II; for kobs /[I] human thrombin: 0.07 μM thrombin, 0.25-42 μM inhibitor, 80 mM Hepes pH 7.5, 428 mM NaCl, 8% DMSO, 25° C., NI = no inhibition
T2 construct: bovine trypsin, human thrombin
Experimental: as §1, with “271-278}.” for “271-278}. First order inactivation rate constants (Kobs) were obtained from plots of In vt /vo vs time, and the correlation coefficients were greater then 0.98.”
as §10, §11, §12
thrombin, 0.25-42 μM inhibitor in an 80 mM Hepes, pH 7.5 buffer
(§20) containing 428 mM NaCl and 8% DMSO; 0.07 μM tryptase, 20-66 μM
as §13, §14, §15, §16, §17, §18, §19

human granzyme A = target: T3, human granzyme A (Homo sapiens, UniProt P12544); assay: Inactivation rate of human granzyme A, incubation method; details: Table I; 0.1M Hepes, 0.01M CaCl2 pH 7.5, 25° C., 7.6% DMSO, substrate Z--Arg--SBzl
T3 sequence (P12544 29-262): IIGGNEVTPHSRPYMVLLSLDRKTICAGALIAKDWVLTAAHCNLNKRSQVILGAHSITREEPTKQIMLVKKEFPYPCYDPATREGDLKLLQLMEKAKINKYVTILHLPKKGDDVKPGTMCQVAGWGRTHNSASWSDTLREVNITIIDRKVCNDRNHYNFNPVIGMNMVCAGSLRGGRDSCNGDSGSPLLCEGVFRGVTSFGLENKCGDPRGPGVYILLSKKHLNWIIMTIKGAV
Experimental: as §1, §2, §3, §4, §5, §6, §7, §8, §9

rat granzyme K = target: T4, rat granzyme K (Rattus norvegicus, UniProt P49864); assay: Inactivation rate of rat granzyme K, incubation method; details: Table I; 0.1M Hepes, 0.01M CaCl2 pH 7.5, 25° C., 7.1% DMSO, substrate Z--Arg--SBzl; NI = no inhibition after 25 min of incubation
T4 sequence (P49864 26-258): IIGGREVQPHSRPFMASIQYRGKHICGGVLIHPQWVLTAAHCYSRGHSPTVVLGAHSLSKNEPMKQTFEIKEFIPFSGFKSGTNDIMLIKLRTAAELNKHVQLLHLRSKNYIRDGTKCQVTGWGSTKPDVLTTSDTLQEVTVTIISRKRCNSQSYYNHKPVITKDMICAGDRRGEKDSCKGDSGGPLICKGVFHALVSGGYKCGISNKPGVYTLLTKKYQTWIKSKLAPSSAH
Experimental: as §1, §2, §3, §4, §5, §6, §7, §8, §9

mast cell tryptase = mast cell tryptase (Homo sapiens, UniProt Q15661); assay: Inactivation rate of mast cell tryptase, incubation method; details: for kobs /[I] mast cell tryptase: 0.07 μM tryptase, 20-66 μM inhibitor, Hepes pH 7.5, heparin, 9% glycerol, 8% DMSO, 25° C., NI = no inhibition; for kobsd /[I] mast cell tryptase: 0.1M Hepes, 10% glycerol, 10 mM heparin, pH 7.5, 25° C., 7.1% DMSO, NI = no inhibition after 25 min of incubation
Experimental: as §1, §2, §3, §4, §5, §6, §7, §8, §9, §10, §20
inhibitor # in an mM Hepes, pH 7.5 buffer containing 8 mM heparin, 166 m
NaCl, 0.8 mM Mes, 9% glycerol and 8% DMSO; 0.42 μM factor Xa, 66 μM
as §13, §14, §15, §16, §17, §18, §19

[1] = Table II, printed in the kobs/[I] column

Sequence of mast cell tryptase (Q15661 31-275): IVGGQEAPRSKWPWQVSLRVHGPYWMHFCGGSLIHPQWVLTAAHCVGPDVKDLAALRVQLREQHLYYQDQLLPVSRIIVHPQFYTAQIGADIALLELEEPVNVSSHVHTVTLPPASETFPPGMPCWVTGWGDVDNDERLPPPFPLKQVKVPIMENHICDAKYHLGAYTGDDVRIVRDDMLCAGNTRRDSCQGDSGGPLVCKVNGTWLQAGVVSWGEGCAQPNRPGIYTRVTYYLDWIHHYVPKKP

Compound | kobsd /[I] bovine trypsin (bovine trypsin) | kobs /[I] bovine trypsin (bovine trypsin; Table II) | kobs /[I] human thrombin (human thrombin) | kobsd /[I] human granzyme A (human granzyme A) | kobsd /[I] rat granzyme K (rat granzyme K) | % Inh mast cell tryptase (mast cell tryptase; Table I, printed in the kobsd/[I] column) | % Inh mast cell tryptase (mast cell tryptase; [1]) | kobs /[I] mast cell tryptase (mast cell tryptase; Table II) | kobsd /[I] mast cell tryptase (mast cell tryptase; Table I) | % Inh human thrombin (human thrombin; printed in the kobs/[I] column) | % Inh bovine trypsin (bovine trypsin; [1])
N=C(N)c1ccc(C(NC(=O)[C@@H]2CCCN2C(=O)CC(c2ccccc2)c2ccccc2)P(=O)(Oc2ccccc2)Oc2ccccc2)cc1 (some centres unmarked) [3,3-Diphenylpropanoyl-Pro-(4-AmPhGly)^P (OPh)2] | 2660 ± 40 M⁻¹ s⁻¹ | 2,660 ± 40 M^-1 s^-1 | 80,300 ± 368 M^-1 s^-1 | 250 ± 8 M⁻¹ s⁻¹ | 1830 ± 140 M⁻¹ s⁻¹ |  |  |  |  |  | 
Cl.N=C(N)c1ccc(C(NC(=O)[C@@H]2CCCN2C(=O)c2cccc(Oc3ccccc3)c2)P(=O)(Oc2ccccc2)Oc2ccccc2)cc1 (some centres unmarked) [Diphenyl N-(N-(3-Phenoxybenzoylprolyl))amino(4-amidinophenyl)methanephosphonate Hydrochloride] | 4080 ± 32 M⁻¹ s⁻¹ | 4,080 ± 32 M^-1 s^-1 | 1,340 ± 225 M^-1 s^-1 | 330 ± 58 M⁻¹ s⁻¹ |  | 7% | 7% |  |  |  | 
Cl.N=C(N)c1ccc(C(NC(=O)OCc2ccccc2)P(=O)(Oc2ccc(Cl)cc2)Oc2ccc(Cl)cc2)cc1 (centres unmarked) [Cbz-(4-AmPhGly)^P (OPh-p-Cl)2, Di-p-chlorophenyl N-Benzyloxycarbonylamino-(4-amidinophenyl)methanephosphonate Hydrochloride] |  | 41,100 ± 5400 M^-1 s^-1 | 9,300 ± 210 M^-1 s^-1 |  |  |  |  | 3 ± 0 M⁻¹ s⁻¹ |  |  | 
CC(NC(=O)C(CCCCN)NC(=O)OCc1ccccc1)C(=O)NC(c1ccc(C(=N)N)cc1)P(=O)(Oc1ccccc1)Oc1ccccc1 (mixture of isomers) [Cbz--Lys--Ala-(4-AmPhGly)^P (OPh)2] | 3140 ± 262 M⁻¹ s⁻¹ | 3,140 ± 262 M^-1 s^-1 | 180 ± 7 M⁻¹ s⁻¹ | 90 ± 9 M⁻¹ s⁻¹ |  |  |  | 2.0 ± 0.0 M⁻¹ s⁻¹ | 2 M⁻¹ s⁻¹ |  | 
C[C@H](NC(=O)[C@H](CC(=O)OC(C)(C)C)NC(=O)OCc1ccccc1)C(=O)NC(c1ccc(C(=N)N)cc1)P(=O)(Oc1ccccc1)Oc1ccccc1 (some centres unmarked) [Cbz--Asp(O-t-Bu)--Ala-(4-AmPhGly)^P (OPh)2] | 2000 ± 24 M⁻¹ s⁻¹ | 2,000 ± 24 M^-1 s^-1 | 480 ± 93 M⁻¹ s⁻¹ | 280 ± 5 M⁻¹ s⁻¹ |  |  |  | 3 ± 0 M⁻¹ s⁻¹ | 3 M⁻¹ s⁻¹ |  | 
C[C@@H](O)[C@H](NC(=O)OCc1ccccc1)C(=O)NC(c1ccc(C(=N)N)cc1)P(=O)(Oc1ccccc1)Oc1ccccc1 (some centres unmarked) [Cbz--Thr-(4-AmPhGly)^P (OPh)2] | 97 M⁻¹ s⁻¹ | 97 ± 2 M⁻¹ s⁻¹ | 61 ± 3 M⁻¹ s⁻¹ | 2220 ± 40 M⁻¹ s⁻¹ | 3 M⁻¹ s⁻¹ |  |  |  |  |  | 
CC(C)C(NC(=O)OC(C)(C)C)C(=O)NC(C(=O)NC(c1ccc(C(=N)N)cc1)P(=O)(Oc1ccccc1)Oc1ccccc1)C(C)C (mixture of isomers) [Boc--Val--Val-(4-AmPhGly)^P (OPh)2] |  | 61 ± 5 M⁻¹ s⁻¹ | 85 ± 5 M⁻¹ s⁻¹ |  |  |  |  |  |  |  | 
CC(C)CC(NC(=O)OCc1ccccc1)C(=O)NC(c1ccc(C(=N)N)cc1)P(=O)(Oc1ccccc1)Oc1ccccc1 (mixture of isomers) [Cbz--Leu-(4-AmPhGly)^P (OPh)2] | 50 ± 1 M⁻¹ s⁻¹ | 1.3 ± 0.1 M⁻¹ s⁻¹ |  | 6.3 ± 0.7 M⁻¹ s⁻¹ |  |  |  | 0.3 M⁻¹ s⁻¹ | 0.3 M⁻¹ s⁻¹ | 19% | 
CC(NC(=O)C(CCCCNC(=O)OC(C)(C)C)NC(=O)OCc1ccccc1)C(=O)NC(c1ccc(C(=N)N)cc1)P(=O)(Oc1ccccc1)Oc1ccccc1 (mixture of isomers) [Cbz--Lyz(Boc)--Ala-(4-AmPhGly)^P (OPh)2] | 3100 ± 177 M⁻¹ s⁻¹ | 3,100 ± 177 M^-1 s^-1 | 450 ± 58 M⁻¹ s⁻¹ | 110 ± 5 M⁻¹ s⁻¹ |  |  |  | 8.7 ± 0.4 M⁻¹ s⁻¹ | 8.5 ± 0.4 M⁻¹ s⁻¹ |  | 
N=C(N)c1ccc(C(NC(=O)CCCc2ccccc2)P(=O)(Oc2ccccc2)Oc2ccccc2)cc1 (centres unmarked) [4-Phenylbutanoyl-(4-AmPhGly)^P (OPh)2] |  |  | 17 ± 1 M⁻¹ s⁻¹ |  |  |  |  |  |  |  | 15%
